The source made the active and inactive calls.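 The calls were made as follows: active = fitted curve drops below -35% activity at a concentration within twice the top valid tested dose; inconclusive = no clear call, values can overlap the other calls; inactive = signal rising instead of falling, among other cases.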
System: not listed separately
Assay: ATP-based viability loss in HepG2 cells – cell-based, CellTiter-Glo luminescence, cherry-pick, set 3, cytotoxicity control, dose response (AID 720589)
Settings: HepG2 viability, ATP luminescence (CellTiter-Glo), 72 h; at 0.011 µM; stronger effect = lower value; 0% = untreated, negative = ATP loss

**Q.** With `COc1ccccc1NS(=O)(=O)c1cc(NC(=O)c2cc3ccccc3oc2=O)ccc1C` as the molecule, how does the max activity read?
**A.** -20.4% (inactive)

**Q.** Which max activity does the source give for `CN(C)[C@@H]1CCC[C@@H]1OC(=O)C(c1ccccc1)c1ccccc1` here?
**A.** 32.6% (inactive)

**Q.** With `O=C1CCCC2=C1C(c1ccccn1)Nc1ccc(C(=O)c3ccccc3)cc1N2` (stereo not drawn) as the molecule, how does the max activity read?
**A.** 38.6% (inactive)

Same assay, conditions: HepG2 viability, ATP luminescence (CellTiter-Glo), 72 h; at 0.035 µM; stronger effect = lower value; 0% = untreated, negative = ATP loss

**Q.** For `CCc1ccc(/C=C2\SC(=S)N(CCC(=O)Nc3cc(C)on3)C2=O)cc1`, which max activity is on record?
**A.** -25.9% (inactive)

**Q.** With `C[C@@H]1CN([C@H](C)CO)S(=O)(=O)c2ccc(C#Cc3ccncc3)cc2O[C@@H]1CN(C)C(=O)Nc1ccc2c(c1)OCO2` as the molecule, how does the max activity read?
**A.** -31.9% (inactive)

Same assay, conditions: HepG2 viability, ATP luminescence (CellTiter-Glo), 72 h; at 0.1 µM; stronger effect = lower value; 0% = untreated, negative = ATP loss

**Q.** Which max activity does the source give for `COC(=O)Cc1ccc(NC(=O)c2ccccc2Cl)cc1` here?
**A.** -26.9% (inactive)

**Q.** With `C[C@@H]1CN([C@@H](C)CO)S(=O)(=O)c2ccc(C#CCN(C)C)cc2O[C@@H]1CN(C)Cc1ccncc1` as the molecule, how does the max activity read?
**A.** -45% (inactive)

**Q.** Which max activity does the source give for `Cc1sc2nc(CN3CCC(C)CC3)nc(Cl)c2c1C` here?
**A.** 16.4% (inactive)

Same assay, conditions: HepG2 viability, ATP luminescence (CellTiter-Glo), 72 h; at 0.9 µM; stronger effect = lower value; 0% = untreated, negative = ATP loss

**Q.** With `CCc1ccc2oc(C(=O)N3CCN(c4ccccc4OC)CC3)cc(=O)c2c1` as the molecule, how does the max activity read?
**A.** -16.2% (inactive)

**Q.** With `C[C@@H]1CN([C@H](C)CO)C(=O)c2cc(NC(=O)CCCCCC(=O)Nc3ccccc3N)ccc2O[C@H]1CN(C)S(=O)(=O)c1ccc(Cl)cc1` as the molecule, how does the max activity read?
**A.** -26.7% (inactive)

Same assay, conditions: HepG2 viability, ATP luminescence (CellTiter-Glo), 72 h; at 2.6 µM; stronger effect = lower value; 0% = untreated, negative = ATP loss

**Q.** With `COC(=O)C[C@@H]1CC[C@@H]2[C@H](COc3ccc(NC(=O)c4cccc(Cl)c4)cc3C(=O)N2C)O1` as the molecule, how does the max activity read?
**A.** -17.7% (inactive)

Same assay, conditions: HepG2 viability, ATP luminescence (CellTiter-Glo), 72 h; at 2.85 µM; stronger effect = lower value; 0% = untreated, negative = ATP loss

**Q.** With `CN(C)c1ccc(N=Nc2ccccc2Br)cc1` as the molecule, how does the max activity read?
**A.** -41.2% (inactive)

**Q.** For `O=C(O)c1ccccc1C(=O)Nc1ccc(Oc2ccc3ccccc3c2)cc1`, which max activity is on record?
**A.** -28.2% (inactive)

**Q.** For `CCCCCCN(C(=O)CCCCCN1C(=O)NC(c2ccc(Cl)cc2)C(C(=O)OCc2ccccc2)=C1C)C(C(=O)NCCCC)c1ccc(OCC(=O)OC)c(C(=O)OC)c1` (stereo not drawn), which max activity is on record?
**A.** -30.9% (inactive)

Same assay, conditions: HepG2 viability, ATP luminescence (CellTiter-Glo), 72 h; at 8 µM; stronger effect = lower value; 0% = untreated, negative = ATP loss

**Q.** For `O=C(C[C@@H]1C[C@H]2c3cc(NS(=O)(=O)c4ccc(F)cc4)ccc3O[C@H]2[C@H](CO)O1)NCc1ccc(-c2ccccc2)cc1`, which max activity is on record?
**A.** -26.1% (inactive)

Same assay, conditions: HepG2 viability, ATP luminescence (CellTiter-Glo), 72 h; at 26 µM; stronger effect = lower value; 0% = untreated, negative = ATP loss

**Q.** For `Cc1ccccc1S(=O)(=O)N1CC[C@@H]2[C@@H](CO)Nc3ccc(-c4ccc(C#N)cc4)cc3[C@@H]21`, which max activity is on record?
**A.** -21.8% (inactive)

**Q.** For `O=C(O)c1ccc(N/N=C/c2c[nH]c3ccccc23)cc1`, which max activity is on record?
**A.** -17.3% (inactive)

**Q.** Which max activity does the source give for `COc1ccc(-c2cn(-c3ccc(OC)cc3)c3[n+]2-c2ccccc2CC3)cc1` here?
**A.** -23.2% (inactive)

**Q.** With `CC(=O)Oc1ccc(-c2ccc(C(=O)Nc3cccc(S(=O)(=O)N4CCOCC4)c3)cc2)cc1` as the molecule, how does the max activity read?
**A.** -21.6% (inactive)

**Q.** For `C[C@@H]1CN([C@@H](C)CO)C(=O)Cc2cc(N(C)C)ccc2O[C@@H]1CN(C)Cc1ccccc1`, which max activity is on record?
**A.** -20.7% (inactive)

**Q.** With `Cc1ccsc1/C=N/Nc1ccc(C(=O)O)cc1` as the molecule, how does the max activity read?
**A.** -27.6% (inactive)

System: HepG2 viability, ATP luminescence (CellTiter-Glo), 72 h
Assay: as above
Settings: not given

**Q.** Which AC35 does the source give for `C=C1C(=O)[C@@]23[C@H](O)C[C@@H]4C(C)(C)CC[C@H](O)[C@@]4(C)[C@@H]2CC[C@@H]1[C@H]3O` here?
**A.** 15.3 µM

**Q.** With `COc1ccc(NC(=S)N=Nc2c(O)[nH]c3ccccc23)cc1` as the molecule, how does the AC35 read?
**A.** 15.8 µM

**Q.** For `C[C@@H]1CN([C@@H](C)CO)C(=O)c2cccc(NS(=O)(=O)c3ccc(Cl)cc3)c2O[C@@H]1CN(C)Cc1ccc(C(=O)Nc2ccccc2N)cc1`, which AC35 is on record?
**A.** 2.38 µM

**Q.** Which AC35 does the source give for `CCc1ccc(/C=C2\SC(=S)N(CCCC(=O)N3CCN(C)CC3)C2=O)cc1` here?
**A.** 8.6 µM

**Q.** For `O=c1c2ccccc2nc(/C=C/c2cc(Br)ccc2O)n1CCCO`, which AC35 is on record?
**A.** 6.52 µM

**Q.** With `Cc1cc2sc3ccc(C#CC4(O)CCCCC4)cc3c(=O)c2cc1C` as the molecule, how does the AC35 read?
**A.** 21.6 µM

**Q.** With `N#CC(C#N)=C1C=CC=CN1/C(=C\c1ccco1)C(=O)c1ccc(Cl)cc1` as the molecule, how does the AC35 read?
**A.** 11.2 µM

**Q.** With `CN1C(=O)c2cc(NC(=O)c3ccc(C(F)(F)F)cc3)ccc2OC[C@@H]2O[C@@H](CC(=O)NC3Cc4ccccc4C3)CC[C@H]21` as the molecule, how does the AC35 read?
**A.** 7.45 µM

**Q.** For `CC(=O)OC1CC2(O)C3CCC4CC(O)CCC4(C)C3CCC2(C)C1C1=CC(=O)OC1` (stereo not drawn), which AC35 is on record?
**A.** 0.602 µM

**Q.** For `C[C@H](CO)N1C[C@H](C)[C@H](CN(C)CC2CCCCC2)Oc2ccc(NC(=O)CCCCCC(=O)Nc3ccccc3N)cc2CC1=O`, which AC35 is on record?
**A.** 0.219 µM

**Q.** For `Cc1nc(N)nc(N)c1-c1ccc(Cl)c(Cl)c1`, which AC35 is on record?
**A.** 0.557 µM

**Q.** Which AC35 does the source give for `C[C@@H]1CN([C@@H](C)CO)C(=O)Cc2cc(N(C)C)ccc2O[C@H]1CN(C)Cc1ccc(C(=O)Nc2ccccc2N)cc1` here?
**A.** 2.38 µM

**Q.** With `C[C@H](CO)N1C[C@H](C)[C@H](CN(C)Cc2ccc(C(=O)Nc3ccccc3N)cc2)Oc2c(cccc2N(C)C)C1=O` as the molecule, how does the AC35 read?
**A.** 0.615 µM

**Q.** For `Cc1c(CC(=O)NCCCC(=O)O)c(=O)oc2cc3c(cc12)CCC(C)(C)O3`, which AC35 is on record?
**A.** 16.3 µM

**Q.** With `C[C@@H]1CN([C@@H](C)CO)C(=O)c2cc(NS(=O)(=O)c3ccc(Cl)cc3)ccc2O[C@@H]1CN(C)Cc1ccc(C(=O)Nc2ccccc2N)cc1` as the molecule, how does the AC35 read?
**A.** 9.68 µM

**Q.** For `CN(C)c1ccc(C=c2c3ccccc3n3c2c2c([n+]3C)CCCC2)cc1`, which AC35 is on record?
**A.** 2.14 µM

**Q.** For `CN(C)c1ccc(/C=N/Nc2nc3ccccc3o2)cc1`, which AC35 is on record?
**A.** 18.2 µM
